In data set [1] the target is Sclerotium rolfsii lectin recombinant variant Rec-2, SEQ ID NO: 2 (Agroathelia rolfsii, UniProt A0A0M3KL30). Nature of the data set: O-Glycan array binding study (94 glycans).
A further data set concerns PBMC Normal. Nature of the data set: Cytotoxic effect by MTT assay, 48 h. The conditions noted are these: for Percent cytotoxicity wrt control: PBMC, 48 h. How it is done:
(§1) Cells were treated with Test Items at various concentrations (0.0001 μM-10 μM) for 48 h. The cells corresponding to Positive Control group were treated with Doxorubicin at a concentration ranging from 0.1 μM-100 μM. The Untreated cells were used as Control. After 48 h of incubation, the effect of Test Items on cytotoxicity of cells was determined by MTT assay, the plates were taken out and 20 μl of 5 mg/m1 of MTT 3-(4,5-dimethythiazol-2-yl)-2,5-diphenyl tetrazolium bromide solution was added to all the wells. Cells were incubated for 3 h at 37° C. The supernatant was aspirated. 150 μl of DMSO was added to each well to dissolve formazan crystals. The absorbance of each well was then read at 540 nm using Synergy HT micro plate reader.
(§2) The % Cytotoxicity was calculated using the formula:
(§3) Where, X=Absorbance of cells treated with Test Item; R=Absorbance of Control cells (Untreated cells maintained in growth medium only).
A general note: Tetrazolium assays rely on reduction of a dye to a coloured formazan, in cell work by metabolically active cells.

For another data set, the system named is A549 Lungs. Nature of the data set: Cytotoxic effect by MTT assay, 48 h. The conditions noted are these: for Percent cytotoxicity wrt control: 48 h. The protocol: as §1, §2, §3
(§4) Selectivity Index was calculated using the formula:
(§5) SI=IC50 in Normal cell/IC50 in cancer cell.
(§6) Activity scores of the Selective Index values were categorized as: • Not selective (SI value ≤1) • Moderately selective (1<SI value <5) • Selective (SI value ≥5)

For data set [2], the system named is ovarian cancer cell line (PA-1). Briefly: Cytotoxicity assay, cell titer glow luminescence, 72 h. It is filed as cell-based. The conditions noted are these: 72 h. How it is done: (§7) T-24 Cell line were cultured in McCoy's 5a Medium Modified supplemented with 10% FBS and the PA-1 Cell line was cultured in EMEM Media supplemented with 10% FBS. The assay was performed by plating 5,000 cells/well and incubated at 37° C. overnight. […] Each concentration was added in triplicate and media-only wells used as a control. After incubation for 72 h cell titer glow (Promega) reagent (50 μL) was added to each well and the plates shaken for 5 mins and the luminescence was recorded. Percent viability was determined by dividing luminescence of the treated well by the non-treated well and multiplying by 100. Data was analysed using non-linear regression with a logarithmic scale.
(§8) 5,000 cells/well were plated and incubated at 37° C. overnight. Conjugates/vehicle control dilutions were made in respective media and added to cells. Volume added: 50 uL to each well. Starting treatment concentration was 1 uM for Conjugate of formula 16 and 18, and control SEQ ID NO: 5 alone and 10% for vehicle control (1×PBS with 20% DMA) and then diluted 10-fold down for a total of 11 treatment dilutions. Each concentration was analysed in triplicates. Media-only wells was used as a control to calculate percent viability. Cell titer glow reagent (volume: 50 uL) was added to each well, the plate was shaken for 5 mins and the luminescence was recorded. Drug Treatment Time: 72 hours. Percent viability was calculated by dividing the luminescence signal obtained for each treated well by the untreated well (media-only control) and multiplying by 100.
Background: ATP-based viability assays read luminescence as a measure of living cells.

Data set [3] relates to human urinary bladder cancer cell line (T-24). Described as above. It is filed as cell-based. The conditions noted are these: 72 h. How it is done: as §7, §8
A further data set relates to U251 MG Brain. Briefly: Cytotoxic effect by MTT assay, 48 h. The following applies: for Percent cytotoxicity wrt control: U251 MG, 48 h. How it is done: as §1, §2, §3, §4, §5, §6
The test system of a further data set is T24 Bladder. Nature of the data set: Cytotoxic effect by MTT assay, 48 h. The following applies: for Percent cytotoxicity wrt control: 48 h. The protocol:
as §1, §2, §3, §4, §5, §6

Another data set deals with MDA-MB-231 Breast. Nature of the data set: Cytotoxic effect by MTT assay, 48 h. The following applies: for Percent cytotoxicity wrt control: 48 h. How it is done:
as §1, §2, §3, §4, §5, §6

A further data set deals with HT29 Colon. Briefly: Cytotoxic effect by MTT assay, 48 h. The conditions noted are these: for Percent cytotoxicity wrt control: 48 h. How it is done:
as §1, §2, §3, §4, §5, §6

Another data set deals with KB Cervix. Briefly: Cytotoxic effect by MTT assay, 48 h. The following applies: for Percent cytotoxicity wrt control: KB, 48 h. The protocol:
as §1, §2, §3, §4, §5, §6

In another data set the test system is PANC-1 Pancreatic. Nature of the data set: Cytotoxic effect by MTT assay, 48 h. The following applies: for Percent cytotoxicity wrt control: 48 h. The protocol: as §1, §2, §3, §4, §5, §6
The test system of a further data set is AGS Stomach. Nature of the data set: Cytotoxic effect by MTT assay, 48 h. The conditions noted are these: AGS, 48 h. How it is done: as §1, §2, §3, §4, §5, §6
For the next data set, the system named is PA-1 Ovary. Nature of the data set: Cytotoxic effect by MTT assay, 48 h. The conditions noted are these: for Percent cytotoxicity wrt control: 48 h. The protocol:
as §1, §2, §3, §4, §5, §6

The next data set concerns MG-63 Bone. Nature of the data set: Cytotoxic effect by MTT assay, 48 h. The following applies: for Percent cytotoxicity wrt control: 48 h. How it is done:
as §1, §2, §3, §4, §5, §6

Another data set concerns PA-1 cells. Briefly: Cytotoxicity (cell titer glo, 72 h) ovarian cancer cell line PA-1. The conditions noted are these: Homo sapiens, PA-1 cell line. It is filed as cell-based. How it is done: as §7
5,000 cells/well were plated and incubated at 37° C. overnight. Conjugates/vehicle control dilutions were made in respective media and added to cells. Volume added: 50 uL to each well. […] Each concentration was analysed in triplicates. […] Cell titer glow reagent (volume: 50 uL) was added to each well, the plate was shaken for 5 mins and the luminescence was recorded. […] Percent viability was calculated by dividing the luminescence signal obtained for each treated well by the untreated well (media-only control) and multiplying by 100.

Numbered stars: 1 amine (or outer) side, 2 acyl side, 3 side chain; on linkers, the order of the positions; unused ones are H or OH. Square brackets hold non-standard residues; d marks the D form. Peptide text beside a SMILES is read from it. * marks the point of attachment. Dolaproine = CO[C@@H]([C@@H]1CCCN1)[C@@H](C)C(=O)O; Hexanoyl(6-maleimido) = O=C1C=CC(=O)N1CCCCCC(=O)*; Dil = CC[C@H](C)[C@H](NC)[C@@H](CC(=O)O)OC; PABC = O=C(OCc1ccc(N[*:1])cc1)[*:2]; X1 = C[C@@H](N*)[C@@H](O)c1ccccc1; Cit = NC(=O)NCCC[C@H](N)C(=O)O; NMeV = CN[C@H](C(=O)O)C(C)C

In the case of `CC(=O)N[C@@H]1[C@@H](O[C@@H]2O[C@H](CO)[C@H](O)[C@H](O)[C@H]2O)[C@@H](O)[C@@H](CO)O[C@@H]1O` [T antigen, Galβ1-3GalNAcα], in data set [1], the “Estimated Kd” value is recorded as 0.319 ug/m and the glycan binding result is recorded as “Main binding motifs”.

For orientation: IC50 means the concentration that inhibits the measured activity by half. For the compound `COc1cc2c(cc1OCCCCCOc1cc3c(cc1OC)C(=O)N1C=C(C)C[C@H]1[C@H](O)N3C(=O)OCc1ccc(NC(=O)[C@H](C)NC(=O)[C@@H](NC(=O)CCOCCOCCOCCOCCOCCOCCOCCOCCNC(=O)CCN3C(=O)C=CC3=O)C(C)C)cc1)N=C[C@@H]1CC(C)=CN1C2=O` [Tesirine], the “Percent cytotoxicity wrt control” value in the data set with PBMC Normal (0.0001 μM) is recorded as 16.9%; in the data set on PBMC Normal (0.01 μM), 40.3%; in the data set on PBMC Normal (0.1 μM), 38.7%; in the data set with PBMC Normal (1 μM), 38.2%; in the data set on A549 Lungs (A549, 0.0001 μM), 13.7%; in the data set with A549 Lungs (A549, 0.1 μM) it was 45.2%. For the same compound, the “Percent cytotoxicity wrt control” value in the data set on A549 Lungs (A549, 1 μM) is 53.3%; with A549 Lungs (A549, 10 μM), 66.7%; in the data set with U251 MG Brain (0.001 μM), 26.5%; in the data set on U251 MG Brain (0.01 μM), 23.1%; in the data set with U251 MG Brain (0.1 μM), 19.2%; in the data set with U251 MG Brain (1 μM) it was 27.2%. Besides, the “Percent cytotoxicity wrt control” value with U251 MG Brain (10 μM) is 60.5%; in the data set on T24 Bladder (T24, 0.0001 μM), 57.5%; in the data set on T24 Bladder (T24, 0.001 μM), 60.6%; with T24 Bladder (T24, 0.01 μM) it was 57.5%; in the data set on T24 Bladder (T24, 0.1 μM) it was 61.4%; in the data set on T24 Bladder (T24, 1 μM) it was 62.7%. The “Percent cytotoxicity wrt control” value was determined as 80.4% in the data set on T24 Bladder (T24, 10 μM); 41.9% in the data set on MDA-MB-231 Breast (MDA-MB-231, 0.001 μM); 69.2% with MDA-MB-231 Breast (MDA-MB-231, 1 μM); 37.4% in the data set on HT29 Colon (HT29, 0.0001 μM); 44.5% with HT29 Colon (HT29, 0.001 μM); 47.7% in the data set on HT29 Colon (HT29, 0.01 μM). The “Percent cytotoxicity wrt control” value with HT29 Colon (HT29, 0.1 μM) was 48.3%; in the data set with HT29 Colon (HT29, 1 μM) it was 49%; in the data set with KB Cervix (0.0001 μM), −9.5%; with KB Cervix (0.001 μM), 1%; in the data set with KB Cervix (0.01 μM), 76.2%; with KB Cervix (0.1 μM) it was 93.8%. Moreover, the “Percent cytotoxicity wrt control” value in the data set with KB Cervix (1 μM) is 89.1%; in the data set on KB Cervix (10 μM), 92.7%; with PANC-1 Pancreatic (PANC-1, 0.0001 μM), 46.6%; in the data set with PANC-1 Pancreatic (PANC-1, 0.001 μM), 51.1%; in the data set on PANC-1 Pancreatic (PANC-1, 0.01 μM), 58.3%; in the data set with PANC-1 Pancreatic (PANC-1, 0.1 μM), 55%. Further, the “Percent cytotoxicity wrt control” value is given as 71% in the data set on PANC-1 Pancreatic (PANC-1, 10 μM); 66.4% in the data set on AGS Stomach (0.0001 μM); 77.8% in the data set on AGS Stomach (0.01 μM); 81.3% with AGS Stomach (0.1 μM); 81.3% in the data set with AGS Stomach (1 μM); 81.6% in the data set on AGS Stomach (10 μM). Also, the “Percent cytotoxicity wrt control” value in the data set on PA-1 Ovary (PA-1, 0.001 μM) is 66.8%; with PA-1 Ovary (PA-1, 0.01 μM), 79.1%; in the data set on PA-1 Ovary (PA-1, 1 μM) it was 78.1%; with PA-1 Ovary (PA-1, 10 μM) it was 80.5%; in the data set on MG-63 Bone (MG-63, 0.0001 μM) it was 46.6%; with MG-63 Bone (MG-63, 0.001 μM), 69.4%. Further, the “Percent cytotoxicity wrt control” value is given as 81.2% in the data set on MG-63 Bone (MG-63, 0.01 μM) and 82.3% in the data set on MG-63 Bone (MG-63, 1 μM). Also, the concentration for half-maximal inhibition (IC50) in the data set with PBMC Normal (read-out: IC50 Values, PBMC Normal, after 48 h of treatment) worked out at 5090 nM; in the data set on A549 Lungs (read-out: IC50 Values, A549 Lungs, after 48 h of treatment), 390 nM; in data set [2], 13.4 nM; in [3] it was 145 nM; in the data set on U251 MG Brain (read-out: IC50 Values, U251 MG Brain, after 48 h of treatment) it was 6820 nM; with T24 Bladder (read-out: IC50 Values, T24 Bladder, after 48 h of treatment), 2 nM. Also, the IC50 in the data set with MDA-MB-231 Breast (read-out: IC50 Values, MDA-MB-231 Breast, after 48 h of treatment) was 1.4 nM; with HT29 Colon (read-out: IC50 Values, HT29 Colon, after 48 h of treatment), 20 nM; with KB Cervix (read-out: IC50 Values, KB Cervix, after 48 h of treatment), 6 nM; in the data set on PANC-1 Pancreatic (read-out: IC50 Values, PANC-1 Pancreatic, after 48 h of treatment) it was 0.7 nM; in the data set with PA-1 Ovary (read-out: IC50 Values, PA-1 Ovary, after 48 h of treatment) it was 0.00599 nM; in the data set on MG-63 Bone (read-out: IC50 Values, MG-63 Bone, after 48 h of treatment) it was 0.03 nM.

Turning to `CC(=O)N[C@H]1[C@H](OC[C@H]2OC(O)[C@H](NC(C)=O)[C@@H](O[C@@H]3O[C@H](CO)[C@H](O)[C@H](O)[C@H]3O)[C@H]2O)O[C@H](CO)[C@@H](O)[C@@H]1O` (stereo partly shown) [core 2], in data set [1], the “Estimated Kd” value was 0.212 ug/m and the glycan binding result is listed as “Main binding motifs”.

Take `CC[C@H](C)[C@@H]([C@@H](CC(=O)N1CCC[C@H]1[C@H](OC)[C@@H](C)C(=O)N[C@H](C)[C@@H](O)c1ccccc1)OC)N(C)C(=O)[C@@H](NC(=O)[C@H](C(C)C)N(C)C(=O)OCc1ccc(NC(=O)[C@H](CCCNC(N)=O)NC(=O)[C@@H](NC(=O)CCCCCN2C(=O)C=CC2=O)C(C)C)cc1)C(C)C` [mc-vc-PAB-MMAE] ({Hexanoyl(6-maleimido)}-V[Cit][PABC][NMeV]V[Dil][Dolaproine]-X1): the half-maximal inhibitory concentration (IC50) (with PA-1 cells; in data set [2]) was 647 nM throughout.

With Sialyl T antigen, in data set [1], the “Estimated Kd” value is 0.670 to 1.756 ug/m and the glycan binding entry is recorded as “Main binding motifs”.
